# Test results from patent US8338480B2, “Combination treatment of metabolic disorders” (Wellstat Therapeutics Corporation, priority 2006, dated 2012).
# Structures can show the parent of a compound that is named as a salt. Marks after values point to notes of the source that are not given here.
# Experiments:
# Assay type in all cases: in vivo
# [1] = test system: Gold Thioglucose-obese mice; test: Serum glucose, triglycerides and free fatty acids in gold thioglucose-obese mice (Example 1); settings: GTG-obese mice, after two weeks
# Protocol: Systemic administration of gold thioglucose (GTG) damages glucose-sensing neurons in the hypothalamus, and consequently impairs regulation of satiety, leading to chronic hyperphagia and consequent obesity.
# Mice received single daily oral treatment with Compound BI, rosiglitazone or combinations of the two drugs. A group of lean control mice on a standard low fat rodent chow was also included.
# • 1. Vehicle (1% hydroxypropylmethylcellulose) • 2. Compound BI 30 mg/kg • 3. Compound BI 100 mg/kg • 4. Rosiglitazone (RSG) 3 mg/kg • 5. RSG 3 mg/kg+Compound BI 30 mg/kg • 6. RSG 3 mg/kg+Compound BI 100 mg/kg • 7. Lean Control (no treatment)
# After two weeks, blood samples were collected from the retro-orbital sinus for measurement of serum glucose, triglycerides, and free fatty acids.
# db/db mice [2] = test: Serum glucose and triglycerides in db/db mice treated for 4 weeks (Example 2); settings: for Serum Glucose Mean / Serum Triglycerides Mean: 4 weeks oral gavage once per day
# Protocol: (§1) Male db/db mice have a defect in the receptor for the appetite-regulating protein leptin and consequently develop hyperphagia, obesity, insulin resistance, hyperglycemia, hypertriglyceridemia. Male db/db mice are an accepted animal model for Type II diabetes. The effect of a range of single daily doses of orally administered Compound BI was assessed in this model, and the efficacy of rosiglitazone alone and in combination with Compound BI was also examined.
# Male C57BL/Ksola db/db mice (“db/db mice”) were obtained from Harlan (Indianapolis, Ind.) and allowed to acclimate for a minimum of one week. […] Male C57BL/6 mice of the same age were used as lean nondiabetic controls.
# (§2) Body weights and blood glucose levels were measured and animals were sorted groups of 6-7 mice with equivalent mean body weights in each group. […].
# (§3) • 1. Lean Control (no treatment) • 2. Vehicle • 3. Compound BI 30 mg/kg/day • 4. Compound BI 100 mg/kg/day • 5. Compound BI 150 mg/kg/day • 6. Rosiglitazone 3 mg/kg • 7. Rosiglitazone 3 mg/kg+Compound BI 30 mg/kg • 8. Rosiglitazone 3 mg/kg+Compound BI 100 mg/kg • 9. Rosiglitazone 20 mg/kg • 10. Rosiglitazone 20 mg/kg+Compound BI 30 mg/kg • 11. Rosiglitazone 20 mg/kg+Compound BI 100 mg/kg
# (§4) Drug preparation: Compound BI was suspended in a vehicle comprising 1% aqueous hydroxypropylmethylcellulose, using a tissue homogenizer to minimize particle size and maximize uniformity of the suspension. Rosiglitazone was suspended in the same vehicle. Drug concentrations in the dosing suspension for each treatment group were adjusted according to body weights so that a constant volume of 0.4 ml provided appropropriate drug doses in all groups.
# (§5) Drug Administration: Drugs were administered orally by gavage once per day for 28 days.
# Blood sampling: For serum chemistry analysis, nonfasting blood samples (200 microliters) were obtained via the retro-orbital sinus and collected in serum separator tubes at 11 AM on days 14 and 28 after initiation of drug administration.
# db/db mice [3] = test: Body weight and food consumption in db/db mice treated for 4 weeks (Example 2); settings: for Body Weight (grams) Mean ± SD 4 Weeks / Food Consumption Week 2 / Food Consumption Week 3 / Food Consumption Week 4 / Change in Body Weight (grams): db/db mice; for Change in Body Weight (grams): initial to 4 weeks
# Protocol: as §1
# Male C57BL/Ksola db/db mice (“db/db mice”) were obtained from Harlan (Indianapolis, Ind.) and allowed to acclimate for a minimum of one week. Animals received Purina 5008 Lab Diet and tap water ad libitum and were housed with 3-4 animals per cage. Male C57BL/6 mice of the same age were used as lean nondiabetic controls.
# as §2, §3, §4, §5
# db/db mice [4] = test: Serum glucose in db/db mice after two weeks (Example 4)
# Protocol: (§6) • 8. Vehicle (1% hydroxypropylmethylcellulose) • 9. Compound BI 100 mg/kg • 10. Rosiglitazone (RSG) 3 mg/kg • 11. Compound BI 100 mg/kg+RSG 3 mg/kg • 12. Compound CF 100 mg/kg • 13. Compound CF 100 mg/kg+RSG 3 mg/kg • 14. Compound CT 100 mg/kg+RSG 3 mg/kg • 15. […]
# (§7) After two weeks, blood samples were collected from the retro-orbital sinus and processed for serum chemistry measurements.
# Adiponectin = test: Serum adiponectin in db/db mice after two weeks (Example 4); settings: for Adiponectin ± SD: db/db mice serum
# Text: Adiponectin is an glycoprotein secreted from white adipose tissue. Adiponectin improves insulin sensitive in other tissues, e.g. muscle and liver, and is also protective against atherosclerosis. Thiazolidinedione antidiabetic agents such as rosiglitazone or pioglitazone act largely via action at the PPAR-gamma, a nuclear receptor involved in regulation of fuel metabolism. PPAR-gamma agonists enhance adiponectin production by adipose tissue, and this may contribute to their beneficial effects in diabetes and related metabolic disorders.
# as §6, §7
# db/db mice [5] = test: Serum glucose in db/db mice, combinations with rosiglitazone or pioglitazone, 4 weeks (Example 5); settings: 4 weeks oral once per day
# Protocol: as §1
# Male C57BL/Ksola db/db mice (“db/db mice”) were obtained from Harlan (Indianapolis, Ind.) and allowed to acclimate for a minimum of one week.
# as §2
# • 12. Vehicle • 13. Compound BI 100 mg/kg/day • 14. Rosiglitazone 3 mg/kg • 15. Rosiglitazone 3 mg/kg+Compound BI 100 mg/kg • 16. Pioglitazone 30 mg/kg • 17. Pioglitazone 30 mg/kg+Compound BI 100 mg/kg • 18. Pioglitazone 100 mg/kg • 19. Pioglitazone 100 mg/kg+Compound BI 100 mg/kg
# as §4, with “Pioglitazone and rosiglitazone were” for “Rosiglitazone was”, “vehicle after pulverization of commercial tablets of each of these drugs.” for “vehicle.”
# as §5
# Blood sampling: For serum chemistry analysis, nonfasting blood samples (200 microliters) were obtained via the retro-orbital sinus and collected in serum separator tubes at 11 AM on day 28 after initiation of drug administration.
# [6] = Compound BI 30 mg/kg oral daily
# [7] = Compound BI 100 mg/kg oral daily
smiles,measurement,setting,value
"Cc1cccc(C)c1COc1cccc(C(=O)CCC(=O)O)c1 [Compound BI, 4-(3-(2,6-Dimethylbenzyloxy)phenyl)-4-oxobutyric acid]","blood glucose, triglycerides and free fatty acids (in words)",[1],dose-dependent decreases
same,Free Fatty Acids ± SEM,[1]; [6],969.2 ± 18.2 UMOL/L
same,Glucose ± SEM,[1]; [6],205.8 ± 8.1 mg/dL
same,Triglycerides ± SEM,[1]; [6],62.8 ± 3.0 mg/dL
same,Free Fatty Acids ± SEM,[1]; [7],936.2 ± 63.0 UMOL/L
same,Glucose ± SEM,[1]; [7],160.0 ± 17.7 mg/dL
same,Triglycerides ± SEM,[1]; [7],53.8 ± 7.4 mg/dL
same,Serum Glucose Mean,db/db mice [2]; Compound BI 30 mg/kg,657.8 mg/dL
same,Serum Triglycerides Mean,db/db mice [2]; Compound BI 30 mg/kg,281.2* mg/dL
same,Serum Glucose Mean,db/db mice [2]; Compound BI 100 mg/kg,330.3* mg/dL
same,Serum Triglycerides Mean,db/db mice [2]; Compound BI 100 mg/kg,179.1* mg/dL
same,Serum Glucose Mean,db/db mice [2]; Compound BI 150 mg/kg,271.7* mg/dL
same,Serum Triglycerides Mean,db/db mice [2]; Compound BI 150 mg/kg,177.7* mg/dL
same,"hyperglycemia, hypertriglyceridemia and free fatty acid levels (in words)",db/db mice [2]; combination: rosiglitazone 3 mg/kg/day + Compound BI 30 mg/kg/day,"dose-dependent attenuation of hyperglycemia, hypertriglyceridemia and free fatty acid levels"
same,serum glucose (in words),db/db mice [2]; oral once per day for 28 days,dose dependent reduction of serum glucose
same,body weight and food intake (in words),"db/db mice [3]; Compound BI 30 mg/kg, RSG 3 mg/kg, alone or combined",little effect on body weight and food intake
same,Body Weight (grams) Mean ± SD 4 Weeks,"db/db mice [3]; 4 Weeks oral once per day, Compound BI 30 mg/kg",50.3 ± 2.1 grams
same,Body Weight (grams) Mean ± SD 4 Weeks,"db/db mice [3]; 4 Weeks oral once per day, Compound BI 150 mg/kg",47.4 ± 2.7 grams
same,Body Weight (grams) Mean ± SD 4 Weeks,"db/db mice [3]; 4 weeks oral once per day, Compound BI 100 mg/kg",47.8 ± 3.6 grams
same,Food Consumption Week 2,db/db mice [3]; Compound BI 30 mg/kg,5.3 grams/24 hr/mouse
same,Food Consumption Week 2,db/db mice [3]; Compound BI 100 mg/kg,3.6 grams/24 hr/mouse
same,Food Consumption Week 2,db/db mice [3]; Compound BI 150 mg/kg,3.1 grams/24 hr/mouse
same,Food Consumption Week 3,db/db mice [3]; Compound BI 30 mg/kg,4.9 grams/24 hr/mouse
same,Food Consumption Week 3,db/db mice [3]; Compound BI 100 mg/kg,3.7 grams/24 hr/mouse
same,Food Consumption Week 3,db/db mice [3]; Compound BI 150 mg/kg,4.1 grams/24 hr/mouse
same,Food Consumption Week 4,db/db mice [3]; Compound BI 30 mg/kg,5.6 grams/24 hr/mouse
same,Food Consumption Week 4,db/db mice [3]; Compound BI 100 mg/kg,5.1 grams/24 hr/mouse
same,Food Consumption Week 4,db/db mice [3]; Compound BI 150 mg/kg,6 grams/24 hr/mouse
same,Change in Body Weight (grams),db/db mice [3]; Compound BI 30 mg/kg,+8.4 grams
same,Change in Body Weight (grams),db/db mice [3]; Compound BI 100 mg/kg,+6.3 grams
same,Change in Body Weight (grams),db/db mice [3]; Compound BI 150 mg/kg,+6.6 grams
same,Glucose ± SD,db/db mice [4]; compound alone 100 mg/kg,206 ± 44 mg/dL
same,Adiponectin ± SD,Adiponectin; compound alone 100 mg/kg,9.3 ± 4.8 micrograms/ml
same,effect on adiponectin with concurrent rosiglitazone (in words),"Adiponectin; db/db mice, 100 mg/kg + RSG 3 mg/kg",strongly amplify the effect of concurrent rosiglitazone on adiponectin
same,"serum adiponectin, individual agents (in words)","Adiponectin; db/db mice, agent alone",did not elevate serum adiponectin levels
same,Serum Glucose (mg/dL) Mean ± SD,db/db mice [5]; Compound BI 100 mg/kg,376 ± 151 mg/dL
"CN(CCOc1ccc(CC2SC(=O)NC2=O)cc1)c1ccccn1 (centres unmarked) [RSG, rosiglitazone maleate, reference compound]",Free Fatty Acids ± SEM,[1]; RSG 3 mg/kg oral daily,813.8 ± 34.2 UMOL/L
same,Glucose ± SEM,[1]; RSG 3 mg/kg oral daily,215.8 ± 14.3 mg/dL
same,Triglycerides ± SEM,[1]; RSG 3 mg/kg oral daily,61.4 ± 4.3 mg/dL
same,Serum Glucose Mean,db/db mice [2]; RSG 3 mg/kg,382.8 mg/dL
same,Serum Triglycerides Mean,db/db mice [2]; RSG 3 mg/kg,99.2* mg/dL
same,Serum Glucose Mean,db/db mice [2]; RSG 20 mg/kg,344.7 mg/dL
same,Serum Triglycerides Mean,db/db mice [2]; RSG 20 mg/kg,117.3* mg/dL
same,Body Weight (grams) Mean ± SD 4 Weeks,"db/db mice [3]; 4 Weeks oral once per day, RSG 20 mg/kg",51.4 ± 1.4 grams
same,Body Weight (grams) Mean ± SD 4 Weeks,"db/db mice [3]; 4 weeks oral once per day, RSG 3 mg/kg",48.2 ± 2.6 grams
same,Food Consumption Week 2,db/db mice [3]; RSG 3 mg/kg,5.3 grams/24 hr/mouse
same,Food Consumption Week 2,db/db mice [3]; RSG 20 mg/kg,5.4 grams/24 hr/mouse
same,Food Consumption Week 3,db/db mice [3]; RSG 3 mg/kg,4.0 grams/24 hr/mouse
same,Food Consumption Week 3,db/db mice [3]; RSG 20 mg/kg,5.9 grams/24 hr/mouse
same,Food Consumption Week 4,db/db mice [3]; RSG 3 mg/kg,4.8 grams/24 hr/mouse
same,Food Consumption Week 4,db/db mice [3]; RSG 20 mg/kg,6.3 grams/24 hr/mouse
same,Change in Body Weight (grams),db/db mice [3]; RSG 3 mg/kg,+6.4 grams
same,Change in Body Weight (grams),db/db mice [3]; RSG 20 mg/kg,+10.3 grams
same,Glucose ± SD,db/db mice [4]; RSG 3 mg/kg alone,258 ± 74 mg/dL
same,Adiponectin ± SD,Adiponectin; RSG 3 mg/kg alone,12.3 ± 3.0 micrograms/ml
same,Serum Glucose (mg/dL) Mean ± SD,db/db mice [5]; RSG 3 mg/kg,432 ± 138 mg/dL
